How the values were obtained:
FAAH = biological target: T1, FAAH (Mus musculus, UniProt O08914); assay: tissue distribution after co-dosing prodrug ABX-002 with or without PFI or GFI; type: in vivo, mice; conditions: plasma, liver and brain, co-dosing with PFI or GFI
T1 construct: from tissue; host or cells: living mice; plasma, liver and brain sampled
T1 sequence (O08914 1-579): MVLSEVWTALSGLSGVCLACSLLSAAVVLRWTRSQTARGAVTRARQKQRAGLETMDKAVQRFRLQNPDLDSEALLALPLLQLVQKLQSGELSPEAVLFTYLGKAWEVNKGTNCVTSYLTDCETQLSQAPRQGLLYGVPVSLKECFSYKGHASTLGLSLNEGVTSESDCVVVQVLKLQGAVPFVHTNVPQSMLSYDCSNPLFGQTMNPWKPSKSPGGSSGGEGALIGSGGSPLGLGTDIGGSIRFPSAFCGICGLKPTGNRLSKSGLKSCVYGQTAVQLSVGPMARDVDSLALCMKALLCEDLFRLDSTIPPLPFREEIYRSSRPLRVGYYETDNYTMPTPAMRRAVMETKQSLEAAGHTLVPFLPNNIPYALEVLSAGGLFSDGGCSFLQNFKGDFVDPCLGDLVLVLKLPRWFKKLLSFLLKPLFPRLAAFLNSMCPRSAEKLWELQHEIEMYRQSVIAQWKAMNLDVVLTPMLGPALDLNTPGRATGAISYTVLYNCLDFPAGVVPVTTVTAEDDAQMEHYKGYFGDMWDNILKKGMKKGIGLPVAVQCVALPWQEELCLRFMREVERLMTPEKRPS
Protocol: The ability of globally-penetrant and peripherally-restricted FAAH inhibitors (GFI & PFI, respectively) to alter distribution of ABX-002 and ABX-002A was assessed.
Table 5 depicts the inhibition of active metabolite (LL-650177 or PF-044578454) in AUC in the plasma, liver, and brain after prodrug (ABX-002) co-dosing. Tissue distribution studies in mice confirm global & peripheral inhibition of FAAH.

T4 = assay: plasma T4 (ELISA) after 7 days PO QD dosing; type: in vivo, Female C57BL/6 mice; conditions: Mus musculus; effects on plasma T4, PO QD 7 days, 4 or 8 h after last dose
Protocol: Female C57BL/6 mice (n=5/group), 6-8 weeks old, were acclimated to the study room for at least 3 days before dose administration in the studies. Mice were dosed at 5 mL/kg based on most recent body weight, collected once for the duration of the study. Based on most recent body weight, collected once for the duration of the study, mice were placed into weight-matched treatment dosing cohorts. Mice were given a single administration of PFI or vehicle orally (PO) daily (n=5/group) for 7 days at time=−1 hour. Following the PFI (100 μg/kg) or vehicle dose (10 mL/kg, p.o.), animals were given test article daily at time=0 hour. […] RNA from samples harvested 4 hours after final dose was quantified using a hybridization-based in situ RNA quantification method (NanoString, Seattle, WA), as described below. RNA from samples harvested 8 hours after final dose was quantified using a hybridization-based in situ RNA quantification method (QuantiGene Plex), as described below. […]
T4 was measured in terminal plasma samples using an ELISA kit (Biovision, Inc., Thyroxine [T4] [Mouse/Rat] ELISA Kit, Cat #: K7421-100). […] Absorbance was read at 450 nm within 15 min of addition of the Stop Solution using a Varioskan Lux plate reader (ThermoFisher Scientific, Carlsbad, CA). […] Unknown sample concentrations were determined using GraphPad Prism software (GraphPad Prism 9.0.2, GraphPad Software, San Diego, CA). […]

**Q.** What does the source list for CNC(=O)COc1cc(Cl)c(Cc2ccc(O)c(C(C)C)c2)c(Cl)c1 [Compound 1]?
**A.** prodrug levels with FAAH inhibition (FAAH): did not change or slightly increased; ED50 (T4): 3.4 µg/kg
